Assay results published in US20150218534A1, “MODIFIED DNA POLYMERASE” (TOYOBO CO., LTD., priority 2012, published 2015).

Legend:
[1] = test system: human genomic DNA (about 1.3 kb) with dUTP added; assay: Evaluation of uracil (dUTP) sensitivity by PCR with dUTP added to the reaction; assay type: biochemical; details: for Evaluation of dUTP resisitance on a 11-point scale: closer to 0 = stronger sensitivity to dUTP, closer to 10 = lower sensitivity, summary of Examples 1 to 3; for dUTP resistance: dUTP added to 0.5, 5, 50, 100, 200 μM, about 1.3 kb, 30 cycles, 1 U enzyme
Procedure, shortened: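 Each enzyme (1 U) amplified about 1.3 kb from 10 ng human genomic DNA in KOD-Plus-Ver. 2 buffer with 1.5 mM MgSO4 and 0.2 mM dNTPs. dUTP was added at final 0.5, 5, 50, 100 and 200 μM, over 30 cycles of 98/65/68° C. Sensitivity is the dUTP level still yielding product on ethidium bromide-stained agarose gel.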

482 bp of human β-globin = assay: PCR amplification of 482 bp of human β-globin with dUTP in place of dTTP; assay type: biochemical; design: key to Results of PCR in the presence of dUTP 481 bp: A: Amplified; B: Amplified (faint band); C: Not amplified; details: dTTP replaced by dUTP, 35 cycles
Experimental: 482 bp of human β-globin was amplified to compare the amplification difference between the case of using dTTP and the case of using dUTP in PCR, and the sensitivity to dUTP was examined. For amplification, each enzyme was used after being mixed with 1 μg of a KOD antibody per U of the enzyme. For PCR, components included in KOD-Plus-Ver. 2 (produced by Toyobo Co. Ltd.) were used. General dNTPs (dATP, dTTP, dCTP, dGTP) in an amount of 0.2 mM were added to 50 μl of individual reaction solutions, and dNTPs (dATP, dUTP, dCTP, dGTP) in an amount of 0.2 mM in which dTTP was replaced by dUTP were added to 50 μl of individual reaction solutions. The reaction solutions contained 1× PCR buffer, 1.5 mM MgSO4, primers represented by SEQ ID NOs: 27 and 28 in an amount of 15 pmol for amplifying […], 10 ng of human genomic DNA (produced by Roche), and 1 U of each respective enzyme mixed with the antibody. PCR was performed using a GeneAmp PCR system 9700 (produced by Applied Biosystems) on the following schedule: preliminary reaction at 94° C. for 2 minutes, followed by 35 cycles, each cycle consisting of 98° C. for 10 seconds and 68° C. for 1 minute. After the completion of each individual reaction, each of the resulting reaction solutions was analyzed using to a DNA-1000 kit for MultiNA (produced by Shimadzu Corporation) to confirm amplified DNA fragments. FIGS. 5 and 6 show the results.

| Substance | Evaluation of dUTP resisitance on a 11-point scale [1] | dUTP resistance [1] [µM] | Results of PCR in the presence of dUTP 481 bp (482 bp of human β-globin) |
| --- | --- | --- | --- |
| KOD D141A/E143A/P36H: KOD D141A/E143A (exo(−)) mutant with P36H | 8 | >200 | A |
| KOD D141A/E143A/P36R: KOD D141A/E143A (exo(−)) mutant with P36R | 8 | >200 | A |
| KOD D141A/E143A/V93K: KOD D141A/E143A (exo(−)) mutant with V93K | 8 | >200 | A |
| KOD D141A/E143A/Y7A/P36H: KOD D141A/E143A (exo(−)) mutant with Y7A and P36H | 10 | >200 | A |
| KOD D141A/E143A/Y7A/P36R: KOD D141A/E143A (exo(−)) mutant with Y7A and P36R | 10 | >200 | A |
| KOD D141A/E143A/Y7A/V93K: KOD D141A/E143A (exo(−)) mutant with Y7A and V93K | 10 | >200 | A |
| KOD D141A/E143A/Y7A: KOD D141A/E143A (exo(−)) mutant with Y7A | 2 | 5 | C |
| KOD H147E/P36H/V93K: KOD H147E (exo(+)) mutant with P36H and V93K | 8 | >200 | A |
| KOD H147E/P36H: KOD H147E (exo(+)) mutant with P36H | 6 | >200 | A |
| KOD H147E/P36R/V93K: KOD H147E (exo(+)) mutant with P36R and V93K | 0 | 0 | C |
| KOD H147E/P36R: KOD H147E (exo(+)) mutant with P36R | 6 | >200 | A |
| KOD H147E/P115Δ: KOD H147E (exo(+)) mutant lacking P115 | 0 | 0 | C |
| KOD H147E/V93K: KOD H147E (exo(+)) mutant with V93K | 6 | >200 | A |
| KOD H147E/V93Q: KOD H147E (exo(+)) mutant with V93Q | 4 | 100 | A |
| KOD H147E/V93R: KOD H147E (exo(+)) mutant with V93R | 6 | >200 | A |
| KOD H147E/Y7A/P36H: KOD H147E (exo(+)) mutant with Y7A and P36H | 8 | >200 | A |
| KOD H147E/Y7A/P36R: KOD H147E (exo(+)) mutant with Y7A and P36R | 8 | >200 | A |
| KOD H147E/Y7A/P115Δ: KOD H147E (exo(+)) mutant with Y7A and lacking P115 | 0 | 0 | C |

| Substance | Evaluation of dUTP resisitance on a 11-point scale [1] | dUTP resistance [1] [µM] | Results of PCR in the presence of dUTP 481 bp (482 bp of human β-globin) |
| --- | --- | --- | --- |
| KOD H147E/Y7A/V93K: KOD H147E (exo(+)) mutant with Y7A and V93K | 8 | >200 | A |
| KOD H147E/Y7A: KOD H147E (exo(+)) mutant with Y7A | 2 | 0.5 | C |
| KOD I142R/P36H: KOD I142R (exo(−)) mutant with P36H | 8 | >200 | A |
| KOD I142R/P36R: KOD I142R (exo(−)) mutant with P36R | 8 | >200 | A |
| KOD I142R/V93K: KOD I142R (exo(−)) mutant with V93K | 8 | >200 | A |
| KOD I142R/Y7A/P36H: KOD I142R (exo(−)) mutant with Y7A and P36H | 8 | >200 | A |
| KOD I142R/Y7A/P36R: KOD I142R (exo(−)) mutant with Y7A and P36R | 8 | >200 | A |
| KOD I142R/Y7A/V93K: KOD I142R (exo(−)) mutant with Y7A and V93K | 10 | >200 | A |
| KOD I142R/Y7A: KOD I142R (exo(−)) mutant with Y7A | 2 | 5 | C |
| KOD N210D/P36H: KOD N210D (exo(−)) mutant with P36H | 8 | >200 | A |
| KOD N210D/P36R: KOD N210D (exo(−)) mutant with P36R | 8 | >200 | A |
| KOD N210D/P115Δ: KOD N210D (exo(−)) mutant lacking P115 | 0 | 0 | C |
| KOD N210D/V93K: KOD N210D (exo(−)) mutant with V93K | 8 | >200 | A |
| KOD N210D/V93Q: KOD N210D (exo(−)) mutant with V93Q | 6 | >200 | A |
| KOD N210D/V93R: KOD N210D (exo(−)) mutant with V93R | 8 | >200 | A |
| KOD N210D/Y7A/P36H: KOD N210D (exo(−)) mutant with Y7A and P36H | 10 | >200 | A |
| KOD N210D/Y7A/P36R: KOD N210D (exo(−)) mutant with Y7A and P36R | 10 | >200 | A |
